Measurements: patent US9930888B2, “Composition” (Conopco, Inc., priority 2013, dated 2018)

Key:
[1] = solubility of lactam in candidate solubilisers (magnetic stirring or ultrasonic mixing); format: physicochemical; conditions: 1% lactam in PEG-40 Hydrogenated Castor Oil; Magnetic stirring 24 hours
[2] = as above; format: physicochemical
Protocol: An Ultrasonic mixer was used to obtain determine solubility.
We used a Hielscher UP200S (200W) Sonic Tip on batches of 5-20 ml. We sonicated for up to 60 minutes.
We then tested the candidate solubilisers with 1% lactam, both with 72 hours high speed magnetic stirring (with held temperature of ˜500 in the cases of solubilisers that solidify alone at room temperature) and also 20 minutes Sonication.
In each case we incorporated the lactam powder into the solubilisers (at the levels indicated in the below table) using high speed stirring to avoid lumps from forming. Once the powder was added, the described mixing method (either continued high speed stirring or Ultrasonic mixing) commenced. In the cases of Sorbitan Oleate and Polysorbate-60, we applied initial heating to approx. 500 to ensure the solubilisers were fully liquid prior to commencing addition of the lactam. Both of these materials are non-flowing at room temperature. PEG-40 Hydrogenated Castor required initial heating to ˜350 to ensure complete fluidity prior to commencing.

[3] = test system: S. epidermidis; assay: bacterial respiration of S. epidermidis suspension in microplate; format: cell-based; conditions: lactam pre-blended with hydrotrope, added to remainder of composition, diluted to 11.5 ppm and 0.575 ppm; 20 hours
Protocol: Test samples were diluted in sterile water to achieve a 11.5 ppm level of lactam. Dilute solution (80 μl) was added to a S. epidermidis suspension (20 μl) of bacteria at a concentration of 8 logs in a microplate. Growth media (100 μl tryptone soya broth) was added to each well of the microplate and incubated for 20 hours. Bacterial respiration was measured every 30 minutes and the results were: • A—lactam+hydrotrope only (respiration of surviving bacteria detected ˜4-5 h) • B—lactam added directly to base formulation (which contains MPG)—no pre-mixing prior to addition (respiration of surviving bacteria detected 4-5 hrs) • C—lactam pre-mixed with hydrotrope and then added to base formulation (respiration of surviving bacteria not detected—20 hrs is max detection time) • D—hydrotrope added to base formulation (respiration of surviving bacteria detected 3-4 hrs). The example below is from data obtained when pre-blending lactams with hydrotrope before adding to the remainder of the composition, and diluting to 11.5 ppm and 0.575 ppm in sterile water in order to assess efficacy against S. epidermidis suspension Dilute solution (80 μl) was added to a S. epidermidis suspension (20 μl) of bacteria at a concentration of 8 logs in a microplate. Growth media (100 μl tryptone soya broth) was added to each well of the microplate and incubated for 20 hours. Bacterial respiration was measured every 30 minutes. Data of the test samples were then compared to un-treated cell suspensions (sterile water added instead of test samples) and percent inhibition calculated.

[4] = appearance of lactam solution when added to base formulation at 5%; format: physicochemical; conditions: 3% lactam in PEG-60 Hydrogenated Castor Oil; Magnetic stirring 1 hour
From the text: We ensured the lactam solutions were fully uniform through constant mechanical agitation (to avoid the settling of any unsolubilised lactam material) and added them to base using slow speed stirring to incorporate them without generating aeration.

Observations of solvent solution: % of lactam solubilised [1]: ~75% of lactam | Observations of solvent solution: % of lactam solubilised ([2]; 1% lactam in 3-Methoxy-3-methyl-1-butanol, 20 minutes sonication, temp reached 60-70 C., forced): ~5% of lactam | Observations of solvent solution ([2]; 1% lactam in 3-Methoxy-3-methyl-1-butanol, Magnetic stirring 72 hours): No solubility | Observations of solvent solution ([2]; 1% lactam in Diglycerin, 20 minutes sonication, temp reached 60-70 C.): No solubility | Observations of solvent solution ([2]; 1% lactam in Diglycerin, Magnetic stirring 72 hours): No solubility | Observations of solvent solution: % of lactam solubilised ([2]; 1% lactam in Isopentyldiol, 20 minutes sonication, temp reached 60-70 C., forced): ~5% of lactam | Observations of solvent solution ([2]; 1% lactam in Isopentyldiol, Magnetic stirring 72 hours): No solubility | Observations of solvent solution: % of lactam solubilised ([2]; 1% lactam in PEG-40 Hydrogenated Castor Oil, Magnetic stirring 72 hours): ~90% of lactam | Observations of solvent solution: % of lactam solubilised ([2]; 1% lactam in PEG-40 Hydrogenated Castor Oil, Magnetic stirring 72 hours with temp. at 50 C.): ~99% of lactam | Observations of solvent solution: % of lactam solubilised ([2]; 1% lactam in PEG-60 Hydrogenated Castor Oil, 20 minutes sonication, temp reached 60-70 C.): ~25% of lactam | Observations of solvent solution: % of lactam solubilised ([2]; 1% lactam in PEG-60 Hydrogenated Castor Oil, Magnetic stirring 72 hours at 50 C.): ~25% of lactam | Observations of solvent solution: % of lactam solubilised ([2]; 1% lactam in Pentylene Glycol, 20 minutes sonication, temp reached 60-70 C.): ~5% of lactam | Observations of solvent solution: % of lactam solubilised ([2]; 1% lactam in Pentylene Glycol, Magnetic stirring 72 hours): ~5% of lactam | Observations of solvent solution: % of lactam solubilised ([2]; 1% lactam in Polysorbate 20, Magnetic stirring 24 hours): ~75% of lactam | Observations of solvent solution: % of lactam solubilised ([2]; 1% lactam in Polysorbate 20, Magnetic stirring 72 hours): ~95% of lactam | Observations of solvent solution: % of lactam solubilised ([2]; 1% lactam in Polysorbate 60, 20 minutes sonication, temp reached 60-70 C.): ~25% of lactam | Observations of solvent solution: % of lactam solubilised ([2]; 1% lactam in Polysorbate 60, Magnetic stirring 72 hours at 50 C.): ~25% of lactam | Observations of solvent solution: % of lactam solubilised ([2]; 1% lactam in Polysorbate 80, 20 minutes sonication, temp reached 60-70 C.): ~25% of lactam | Observations of solvent solution: % of lactam solubilised ([2]; 1% lactam in Polysorbate 80, Magnetic stirring 72 hours at 50 C.): ~25% of lactam | Observations of solvent solution: % of lactam solubilised ([2]; 1% lactam in Sisterna SP30-C, 20 minutes sonication, temp reached 60-70 C.): ~25% of lactam | Observations of solvent solution: % of lactam solubilised ([2]; 1% lactam in Sisterna SP30-C, Magnetic stirring 72 hours at 50 C.): ~25% of lactam | Observations of solvent solution: % of lactam solubilised ([2]; 1% lactam in Sisterna SP50-C, 20 minutes sonication, temp reached 60-70 C.): ~25% of lactam | Observations of solvent solution: % of lactam solubilised ([2]; 1% lactam in Sisterna SP50-C, Magnetic stirring 72 hours at 50 C.): ~25% of lactam | Observations of solvent solution: % of lactam solubilised ([2]; 1% lactam in Sisterna SP70-C, 20 minutes sonication, temp reached 60-70 C.): ~25% of lactam | Observations of solvent solution: % of lactam solubilised ([2]; 1% lactam in Sisterna SP70-C, Magnetic stirring 72 hours at 50 C.): ~25% of lactam | Observations of solvent solution: % of lactam solubilised ([2]; 1.5% lactam in Polysorbate 20, 20 minutes sonication, temp reached 60-70 C.): ~75% of lactam | Observations of solvent solution: % of lactam solubilised ([2]; 1.5% lactam in Polysorbate 20, 60 minutes sonication, temp reached 80-90 C., dark brown colour): ~95% of lactam | Observations of solvent solution: % of lactam solubilised ([2]; 1.5% lactam in Polysorbate 20, Magnetic stirring 48 hours): ~50% of lactam | Observations of solvent solution: % of lactam solubilised ([2]; 1.5 lactam in Polysorbate 20, Magnetic stirring, heated to 50 C. 72 hours): ~75% of lactam | Observations of solvent solution: % of lactam appeared to solubilise ([2]; 2.1% lactam in PEG-40 Hydrogenated Castor Oil, 20 minutes sonication, temp reached 80 C., small amount of 'burnt' spots visible): 90% of lactam | Observations of solvent solution ([2]; 2.1% lactam in PEG-40 Hydrogenated Castor Oil, 60 minutes sonication, temp reached 110 C., very dark colour): lactam solubilised. | Observations of solvent solution: % of lactam solubilised ([2]; 2.1% lactam in PEG-40 Hydrogenated Castor Oil, Magnetic stirring 24 hours): ~50% of lactam | Observations of solvent solution: % of lactam solubilised ([2]; 2.1% lactam in PEG-40 Hydrogenated Castor Oil, Magnetic stirring 48 hours): ~75% of lactam | Observations of solvent solution: % of lactam solubilised ([2]; 2.1% lactam in PEG-40 Hydrogenated Castor Oil, Magnetic stirring, heated to 50 C. 8 hours): ~50% of lactam | Observations of solvent solution: % of lactam solubilised ([2]; 2.1% lactam in Polysorbate 20, 20 minutes sonication, temp reached 60-70 C., dark colour formed): ~90% of lactam | Observations of solvent solution: % of lactam solubilised ([2]; 2.1% lactam in Polysorbate 20, 60 minutes sonication, temp reached 80 C.): 90% of lactam | Observations of solvent solution: % of lactam solubilised ([2]; 2.1% lactam in Polysorbate 20, 60 minutes sonication, temp reached 90-100 C.): 90% of lactam | Observations of solvent solution: % of lactam solubilised ([2]; 2.1% lactam in Polysorbate 20, Magnetic stirring 24 hours): ~50% of lactam | Observations of solvent solution: % of lactam solubilised ([2]; 2.1% lactam in Polysorbate 20, Magnetic stirring 48 hours): ~75% of lactam | Observations of solvent solution: % of lactam solubilised ([2]; 2.1% lactam in Polysorbate 20, Magnetic stirring, heated to 50 C. 8 hours): ~50% of lactam | Observations of solvent solution: % of lactam solubilised ([2]; 2.1% lactam in Polysorbate 20, Magnetic stirring, heated to 50 C. 72 hours): ~75% of lactam | Observations of solvent solution ([2]; 3% lactam in Diglycerin, Magnetic stirring 1 hour): No solubility | Observations of solvent solution: % of lactam solubilised ([2]; 3% lactam in Dipropylene Glycol, Magnetic stirring 1 hour): ~5% of lactam | Observations of solvent solution ([2]; 3% lactam in Hexylene Glycol, Magnetic stirring 1 hour): No solubility | Observations of solvent solution ([2]; 3% lactam in Isopentyldiol, Magnetic stirring 1 hour): No solubility | Observations of solvent solution ([2]; 3% lactam in MMB, Magnetic stirring 1 hour): No solubility | Observations of solvent solution: % of lactam solubilised ([2]; 3% lactam in PEG-40 Hydrogenated Castor Oil, 20 minutes sonication, temp reached 60-70 C.): ~75% of lactam | Observations of solvent solution: % of lactam solubilised ([2]; 3% lactam in PEG-40 Hydrogenated Castor Oil, 60 minutes sonication, temp reached 80 C.): ~75% of lactam | Observations of solvent solution: % of lactam solubilised ([2]; 3% lactam in PEG-40 Hydrogenated Castor Oil, Magnetic stirring 1 hour): ~25% of lactam | Observations of solvent solution: % of lactam solubilised ([2]; 3% lactam in PEG-60 Hydrogenated Castor Oil, Magnetic stirring 1 hour): ~10% of lactam | Observations of solvent solution ([2]; 3% lactam in Pentylene Glycol, Magnetic stirring 1 hour): No solubility | Observations of solvent solution: % of lactam solubilised ([2]; 3% lactam in Polysorbate 20, 20 minutes sonication, temp reached 60-70 C.): ~50% of lactam | Observations of solvent solution: % of lactam solubilised ([2]; 3% lactam in Polysorbate 20, 60 minutes sonication, temp reached 90 C.): ~60-70% of lactam | Observations of solvent solution: % of lactam solubilised ([2]; 3% lactam in Polysorbate 20, Magnetic stirring 1 hour): ~25% of lactam | Observations of solvent solution: % of lactam solubilised ([2]; 3% lactam in Polysorbate 60, Magnetic stirring 1 hour, 50 C.): ~10% of lactam | Observations of solvent solution: % of lactam solubilised ([2]; 3% lactam in Polysorbate 80, Magnetic stirring 1 hour): ~10% of lactam | Observations of solvent solution: % of lactam solubilised ([2]; 3% lactam in Sisterna SP30-C, Magnetic stirring 1 hour): ~5% of lactam | Observations of solvent solution: % of lactam solubilised ([2]; 3% lactam in Sisterna SP50-C, Magnetic stirring 1 hour): ~5% of lactam | Observations of solvent solution: % of lactam solubilised ([2]; 3% lactam in Sisterna SP70-C, Magnetic stirring 1 hour): ~5% of lactam | Observations of solvent solution: % of lactam solubilised ([2]; 3% lactam in Sorbitan Oleate, Magnetic stirring 1 hour, 50 C.): ~5% of lactam | Observations of solvent solution: % of lactam solubilised ([2]; 4.2% lactam in PEG-40 Hydrogenated Castor Oil, 20 minutes sonication, temp reached 60-70 C., very dark colour): 50% of lactam | Observations of solvent solution: % of lactam solubilised ([2]; 4.2% lactam in PEG-40 Hydrogenated Castor Oil, 60 minutes sonication, temp reached 80 C., very dark colour): 75% of lactam | Observations of solvent solution: % of lactam solubilised ([2]; 4.2% lactam in PEG-40 Hydrogenated Castor Oil, 60 minutes sonication, temp reached 110 C., very dark colour): 75% of lactam | Observations of solvent solution: % of lactam solubilised ([2]; 4.2% lactam in PEG-40 Hydrogenated Castor Oil, Magnetic stirring 24 hours): ~25% of lactam | Observations of solvent solution: % of lactam solubilised ([2]; 4.2% lactam in PEG-40 Hydrogenated Castor Oil, Magnetic stirring 48 hours): ~25% of lactam | Observations of solvent solution: % of lactam solubilised ([2]; 4.2% lactam in PEG-40 Hydrogenated Castor Oil, initially stirred for 2, 4 and 6 hours): ≤ 25% solubilised). | Observations of solvent solution: % of lactam solubilised ([2]; 4.2% lactam in Polysorbate 20, 20 minutes sonication, temp reached 60-70 C.): ~50% of lactam | Observations of solvent solution: % of lactam solubilised ([2]; 4.2% lactam in Polysorbate 20, 60 minutes sonication, temp reached 90 C.): ~60-70% of lactam | Observations of solvent solution: % of lactam solubilised ([2]; 4.2% lactam in Polysorbate 20, Magnetic stirring 24 hours): ~25% of lactam | Observations of solvent solution: % of lactam solubilised ([2]; 4.2% lactam in Polysorbate 20, Magnetic stirring 48 hours): ~25% of lactam | Observations of solvent solution: % of lactam solubilised ([2]; 4.2% lactam in Polysorbate 20, initially stirred for 2, 4 and 6 hours): ≤ 25% solubilised). | Observations of solvent solution: % of lactam solubilised ([2]; PEG-40 Hydrogenated Castor Oil table: 3% lactam, Magnetic stirring 1 hour): ~25% of lactam | Observations of solvent solution: % of lactam solubilised ([2]; Polysorbate 20 table: 3% lactam, Magnetic stirring 1 hour): ~25% of lactam | colour change of lactam solution ([2]; when samples exceeded 50 C): dark brown colour | colour change of lactam solution ([2]; when the temperature reached 65 C, Polysorbate-20 and PEG-40 Hydrogenated Castor Oil variants only): virtually opaque | Observations when added to base @ 5% [4]: Cloudy in solution
SMILES: C=C1NC(=O)C=C1c1ccccc1 [5-methylene-4-phenyl-1H-pyrrol-2(5H)-one]
Result (inhibition of bacterial respiration versus water control) [3]: 82.5%
